{"source": "patent US20220186188A1", "about": "“Method for Obtaining Pancreatic Progenitor Cells and Pancreatic Islet Beta Cells By Means of Differentiation of Human Pluripotent Stem Cells” (Asia Regenerative Medicine, Ltd., priority 2019, published 2022)", "key": {"[1]": {"test_system": "pancreatic progenitor cells and pancreatic islet β cells differentiated from human embryonic stem cells", "assay": "Real-time fluorescence quantitative PCR of PDX1, NKX6-1 and INS mRNA (human embryonic stem cells)", "type": "cell-based", "conditions": "qPCR", "procedure": "(§1) a pancreatic progenitor cell medium was prepared, the medium in step 1) was replaced with the pancreatic progenitor cell medium, and the cells were cultured in a carbon dioxide incubator at 37 degrees Celsius for 5 days, during which the medium was replaced every day, wherein the composition of the pancreatic progenitor cell medium was: with an MCDB131 medium as a basic medium, and the following components at the working concentrations were further included: 0.5% of bovine serum albumin (BSA), 1.5 g/L of sodium bicarbonate, 1×glutamine (GlutaMAX), 10 mM glucose, 0.25 M vitamin C, 1×insulin-transferrin-selenium-ethanolamine additive (ITS-X), 50 ng/ml of fibroblast growth factor 7 (KGF), 0.5 μM SANT1 (with smo as an inhibitor target), 100 nM retinoic acid (TTNPB), 500 nM phorbol 12,13-dibutyrate (PDBu), 2 μM ALK inhibitor (K02288), and 2 μM WNT signaling pathway inhibitor XAV-939 (not added in a control group), with the concentrations all being final concentrations.\n(§2) b. pancreatic islet β cell medium 2 was prepared, the pancreatic islet β cell medium 1 in above-mentioned step a was replaced with the pancreatic islet β cell medium 2, and the cells were cultured in a carbon dioxide incubator at 37 degrees Celsius for 5 days, during which the medium was replaced every day, wherein the composition of the pancreatic islet β cell medium 1 was: with an MCDB131 medium as a basic medium, and the following components at the working concentrations were further included: 20 mM glucose, 2% of bovine serum albumin (BSA), 1.5 g/L of sodium bicarbonate, 1×glutamine (GlutaMAX), 0.05 mM vitamin C, 1×insulin-transferrin-selenium-ethanolamine additive (ITS-X), 2 μM ALK inhibitor (K02288), 1 μM triiodothyronine (T3), 10 μM YO-01027 (Notch signaling pathway inhibitor), and 10 μM zinc sulfate, with the concentrations all being final concentrations; and the composition of the pancreatic islet β cell medium 2 was: with an MCDB131 medium as a basic medium, and the following components at the working concentrations were further included: 20 mM glucose, 2% of bovine serum albumin (BSA), 1.5 g/L of sodium bicarbonate, 1×glutamine (GlutaMAX), 0.05 mM vitamin C, 1×insulin-transferrin-selenium-ethanolamine additive (ITS-X), 1 μM triiodothyronine (T3), 10 μM Repsox (ALK5 inhibitor), 10 μM vitamin E, 10 μg/ml of heparin sodium, 2 μM R428 (Axl inhibitor), 10 μM zinc sulfate, and 10 mM N-acetyl-L-cysteine (N-cys), with the concentrations all being final concentrations.\nCells cultured in a 24-well plate were collected, and washed twice with 500 μl of DPBS at first, then covered with 200 μl of chymotrypsin-trypsin (Trypsin), and placed at 37° C. for 5 minutes of digestion. Whether the cells float in pieces was observed, and the digestion was terminated using 500 μl of DMEM/F12 medium, then the product was centrifuged at 1000 rpm for 3 minutes, the supernatant was removed, and cell pellets were collected and added to a new RNase-free centrifuge tube. […]"}, "[2]": {"test_system": "pancreatic progenitor cells and pancreatic islet β cells differentiated from human embryonic stem cells", "assay": "Immunofluorescence detection of PDX1 and PDX1/INS proteins (human embryonic stem cells)", "type": "cell-based", "procedure": "as §1, §2\nCells in a culture plate were washed three times with a phosphate buffered saline (PBS), 3 minutes each time; the cells were fixed with 4% paraformaldehyde at room temperature for 20 minutes, and washed three times with PBS, 3 minutes each time; a blocking solution was prepared in advance (by adding Triton at a final concentration of 0.3% to 9 ml of DPBS, adding donkey serum at a final concentration of 10%, and uniformly mixing); the above-prepared blocking solution was used for blocking and perforation at room temperature for 2 hours; the blocking solution was soaked up, a working concentration of primary antibody prepared with the blocking solution was then added, and the product was left to stand at room temperature for 30 minutes and then placed in a refrigerator at 4° C. overnight; the next day, the product was washed three times with PBS, 3 minutes each time; a fluorescent secondary antibody of donkey serum was added and incubation was carried out at room temperature for 2 hours; in the same way, the product was washed three times with PBS, 3 minutes each time; the product was incubated with a working solution of the nuclear dye DAPI at room temperature for 10 minutes, and washed three times with PBS, 3 minutes each time; then a fluorescence microscope was used for observation and data were collected. […]"}, "[3]": {"conditions": "2 μM inhibitor in pancreatic progenitor cell stage, GAPDH reference"}, "[4]": {"conditions": "2 μM inhibitor in pancreatic progenitor cell stage"}}, "data": [{"smiles": "Oc1nc(-c2ccc(C(F)(F)F)cc2)nc2c1CSCC2", "note": "[XAV-939]", "values": [{"measurement": "transcription level of the insulin gene INS in the mature pancreatic islet β cell stage", "setting": "[1]; 2 μM inhibitor added in pancreatic progenitor cell stage", "value": "greatly increased"}, {"measurement": "relative expression of mRNA of NKX6-1 in pancreatic progenitor cells", "setting": "[1]; [3]", "value": "significantly increased"}, {"measurement": "relative expression of mRNA of PDX1 in pancreatic progenitor cells", "setting": "[1]; [3]", "value": "significantly increased"}, {"measurement": "number of insulin INS-positive and PDX1 co-stained pancreatic islet β cells in the mature pancreatic islet β cell stage", "setting": "[2]; 2 μM inhibitor added in pancreatic progenitor cell stage, immunofluorescence", "value": "significantly increased"}, {"measurement": "PDX1-positive pancreatic progenitor cells (immunofluorescence)", "setting": "[2]; [4]", "value": "significantly increased"}, {"measurement": "cell growth (total cell number by DAPI)", "setting": "[2]; [4]", "value": "did not affect the cell growth"}]}]}
